Test results from patent US12295936B2, “Immunomodulating urea azalides” (Zoetis Services LLC, priority 2020, dated 2025).
≈ marks a conversion by molar mass, not a printed value.

How the values were obtained:
[1] = system: TNF-α; experiment: LPS-stimulated whole bovine blood assay, MSD cytokine detection; assay type: cell-based; details: Bos taurus, LPS-stimulated bovine whole blood; read-out: TNF-α (IC50 μM)
[2] = system: IL-6; experiment: as above; assay type: cell-based; details: Bos taurus, LPS-stimulated bovine whole blood; read-out: IL-6 (IC50 μM)
Description: In order to correlate RNA sequencing data to cytokine changes the whole blood assay was utilized. […] The enhancement result represents an overall stimulation of cytokine levels due to cellular stress or potential toxicity with increasing concentrations of the compound, representing a typical bell shape response curve for immunomodulatory activity.

[3] = system: P. multocida 46572; experiment: In vivo mouse lung infection challenge model (murine efficacy); design: species or system CD-1 female mice; details: 20 mg/kg subcutaneous, P. multocida challenge; harmonized against the comparative vehicle survival rate
Experimental: The challenge organism was P. multocida 46572. Target challenge concentration was 5×10^2 CFU/mouse. Isolated colonies from overnight growth (37° C. with 5% CO2) on trypticase soy agar (TSA II) blood plates were transferred to room temperature Brain Heart Infusion Broth (BHIB). The broth culture was incubated 3.5-4 hours to approximately mid-log phase of growth, as measured by forward light scatter at 600 nm (OD600, 0.200). The culture was centrifuged to collect the bacterial pellet. The pellet was re-suspended in BHIB and adjusted to provide an approximate concentration of 2.7 log^10 colony forming units (CFU) in 0.04 mL at the highest concentration. The challenge inoculum concentration was confirmed by serial dilutions of the inoculum for CFU enumeration. On Day −5, CD-1 female mice were received. Mice were given standard rodent diet and water ad libitum. On Day 0, bacterial inoculum (0.04 mL) was administered to each mouse (n=36) intranasally. Compounds of the invention were dosed at 20 mg/kg (0.1 mL) in a buffered (˜pH 5.4) propylene glycol, monothioglycerol and water solution by subcutaneous injection. Animals were observed from Days 1-10. The study was terminated on Day 10. In addition, some treatment groups were sampled at 6, 24, and 48 hours post bacterial challenge for RNA sequence analysis of lung tissue.
The murine efficacy model (P. multocida challenge) was optimized, and the treatment group size was powered to be able to observe statistically significant improvement of survival to expected ranges for immunomodulatory compounds. The experimental design was a randomized complete block design. Mice were individually identified and treatment groups comingled within a cage, with every treatment group equally represented across cages. Mortality was the primary variable. Mortality data was analyzed using a generalized mixed model with fixed effect of treatment and random effect of block. Survival time was also analyzed using the SAS PHREG (survival analysis) procedure to examine whether there were significant differences between treatment groups and the control group. Numerous compounds of the invention and M9 (positive control) were tested in this model at a dose of 20 mg/kg. Typical percent survival for no treatment control is in the range of 0-20% based on study to study variation in challenge inoculum and rate of infection. […] Mouse survival for M9 was about 90-100%, further supporting its antibacterial properties against the bacterial strain (Table 3). Survival values presented are harmonized against the comparative vehicle survival rate.

[4] = system: BRD pathogens, M. haemolytica and P. multocida; experiment: MIC screening panel of BRD pathogens (antibacterial / non-antibacterial); details: read-out: antibacterial / non-antibacterial (MIC for the BRD pathogens)
[5] = system: IL-1β; experiment: LPS-stimulated whole bovine blood assay, MSD cytokine detection; assay type: cell-based; details: overstimulation of IL-1β, LPS-stimulated bovine whole blood
[6] = system: P. multocida; experiment: Murine P. multocida intranasal challenge study with lung tissue RNA sequence analysis; assay type: in vivo, mice; details: subcutaneous 18 hours after challenge (5×10^3 CFU/mouse): tulathromycin 16 mg/kg, M9 32 mg/kg, ceftiofur 9 mg/kg; placebo 0%
Experimental: In one murine P. multocida intranasal challenge study, mice were administered tulathromycin (16 mg/kg; T02), M9 (32 mg/kg; T03), or ceftiofur (9 mg/kg; T04) by subcutaneous injection 18 hours after bacterial challenge (5×10^3 CFU/mouse) for lung tissue RNA sequence analysis. Survival at Day 7 was about 80%, 50%, and 90% for T02, T03, and T04, respectively, compared to placebo at 0%. Differential gene expression from total lung tissue RNA sequence analysis indicated at least 226 unique genes were up or down regulated (with significance) for T03. Output from ingenuity pathway analysis of these unique genes predicted major upstream regulators of the involved pathways. Data was analyzed based on the number of genes being modulated in the same direction that were associated with a given upstream regulator. An activation z-score of 2 or greater is considered significant and the direction change is indicated by +(activated) or − (inhibited). The top 5 pathways included: IL-9 signaling, glucocorticoid receptor signaling, prolactin signaling, JAK STAT signaling, and IL-17 signaling. The top 6 upstream regulators (activation z-score) included: lipopolysaccharide (−6.725), TNF (−4.669), IFNG (−5.759), IL-1β (−5.947), STAT1 (−2.787), and poly rl:rC-RNA (−5.289). Even though this study was run in the murine model, the top upstream regulators identified as being modulated by M9 include an almost ubiquitous overlap with the pathways identified in the natural disease study as being key mediators in BRD, and therefore is modulating highly relevant pathways in BRD pathobiology.

[7] = system: H. somni; experiment: In-vitro MIC model (CLSI broth micro-dilution)
[8] = system: M. haemolytica; experiment: In-vitro MIC model (CLSI broth micro-dilution)
[9] = system: P. multocida; experiment: In-vitro MIC model (CLSI broth micro-dilution)
[10] = H. somni (25) lung isolates at necropsy, natural BRD study
[11] = M. haemolytica (116) lung isolates at necropsy, natural BRD study
[12] = P. multocida (33) lung isolates at necropsy, natural BRD study

Structure (SMILES)	IC50 [1] [µM]	IC50 [2] [µM]	Mouse Murine Percent Survival [3] [%]	MIC [4] [µg/mL]	IL-1β OS of LPS [5] [µM]	other results
CCCNC[C@]1(O)[C@H](C)O[C@@H](O[C@H]2[C@H](C)[C@@H](O[C@@H]3O[C@H](C)C[C@H](N(C)C(=O)N(C)c4ccc(C(F)(F)F)cc4)[C@H]3O)[C@](C)(O)C[C@@H](C)CN[C@H](C)[C@@H](O)[C@](C)(O)[C@@H](CC)OC(=O)[C@@H]2C)C[C@@]1(C)OC [Example H-13, 1-((2S,3R,4S,6R)-2-(((2R,3S,4R,5R,8R,10R,11R,12S,13S,14R)-2-ethyl-3,4,10-trihydroxy-13-(((2R,4R,5S,6S)-5-hydroxy-4-methoxy-4,6-dimethyl-5-((propylamino)methyl)tetrahydro-2H-pyran-2-yl)oxy)-3,5,8,10,12,14-hexamethyl-15-oxo-1-oxa-6-azacyclopentadecan-11-yl)oxy)-3-hydroxy-6-methyltetrahydro-2H-pyran-4-yl)-1,3-dimethyl-3-(4-(trifluoromethyl)phenyl)urea]	12	9	59	> 64	6	–
CCCNC[C@]1(O)[C@H](C)O[C@@H](O[C@H]2[C@H](C)[C@@H](O[C@@H]3O[C@H](C)C[C@H](N(C)C(=O)N(c4ccccc4)c4ccccc4)[C@H]3O)[C@](C)(O)C[C@@H](C)CN[C@H](C)[C@@H](O)[C@](C)(O)[C@@H](CC)OC(=O)[C@@H]2C)C[C@@]1(C)OC [Example H-39, 1-((2S,3R,4S,6R)-2-(((2R,3S,4R,5R,8R,10R,11R,12S,13S,14R)-2-ethyl-3,4,10-trihydroxy-13-(((2R,4R,5S,6S)-5-hydroxy-4-methoxy-4,6-dimethyl-5-((propylamino)methyl)tetrahydro-2H-pyran-2-yl)oxy)-3,5,8,10,12,14-hexamethyl-15-oxo-1-oxa-6-azacyclopentadecan-11-yl)oxy)-3-hydroxy-6-methyltetrahydro-2H-pyran-4-yl)-1-methyl-3,3-diphenylurea]	21	19	44	> 64	6	–
CCCNC[C@]1(O)[C@H](C)O[C@@H](O[C@H]2[C@H](C)[C@@H](O[C@@H]3O[C@H](C)C[C@H](N(Cc4ccc(OC)cc4)C(=O)N(C)c4ccccc4)[C@H]3O)[C@](C)(O)C[C@@H](C)CN[C@H](C)[C@@H](O)[C@](C)(O)[C@@H](CC)OC(=O)[C@@H]2C)C[C@@]1(C)OC [Example H-60, 1-((2S,3R,4S,6R)-2-(((2R,3S,4R,5R,8R,10R,11R,12S,13S,14R)-2-ethyl-3,4,10-trihydroxy-13-(((2R,4R,5S,6S)-5-hydroxy-4-methoxy-4,6-dimethyl-5-((propylamino)methyl)tetrahydro-2H-pyran-2-yl)oxy)-3,5,8,10,12,14-hexamethyl-15-oxo-1-oxa-6-azacyclopentadecan-11-yl)oxy)-3-hydroxy-6-methyltetrahydro-2H-pyran-4-yl)-1-(4-methoxybenzyl)-3-methyl-3-phenylurea]	5	7	72	> 64	3	–
CCCNC[C@]1(O)[C@H](C)O[C@@H](O[C@H]2[C@H](C)[C@@H](O[C@@H]3O[C@H](C)C[C@H](N(C)C(=O)N(C)c4ccc(C(F)(F)F)cc4)[C@H]3O)[C@](C)(O)C[C@@H](C)CN(C)[C@H](C)[C@@H](O)[C@](C)(O)[C@@H](CC)OC(=O)[C@@H]2C)C[C@@]1(C)OC [Example H-100, 1-((2S,3R,4S,6R)-2-(((2R,3S,4R,5R,8R,10R,11R,12S,13S,14R)-2-ethyl-3,4,10-trihydroxy-13-(((2R,4R,5S,6S)-5-hydroxy-4-methoxy-4,6-dimethyl-5-((propylamino)methyl)tetrahydro-2H-pyran-2-yl)oxy)-3,5,6,8,10,12,14-heptamethyl-15-oxo-1-oxa-6-azacyclopentadecan-11-yl)oxy)-3-hydroxy-6-methyltetrahydro-2H-pyran-4-yl)-1,3-dimethyl-3-(4-(trifluoromethyl)phenyl)urea]	6	10	19	> 64	16	–
CC[C@H]1OC(=O)[C@H](C)[C@@H](O[C@H]2C[C@@](C)(OC)[C@](O)(CN3CC(N4CCOCC4)C3)[C@H](C)O2)[C@H](C)[C@@H](O[C@@H]2O[C@H](C)C[C@H](N(C)C(=O)N(C)c3ccccc3)[C@H]2O)[C@](C)(O)C[C@@H](C)CN[C@H](C)[C@@H](O)[C@]1(C)O [Example J-4, 1-((2S,3R,4S,6R)-2-(((2R,3S,4R,5R,8R,10R,11R,12S,13S,14R)-2-ethyl-3,4,10-trihydroxy-13-(((2R,4R,5S,6S)-5-hydroxy-4-methoxy-4,6-dimethyl-5-((3-morpholinoazetidin-1-yl)methyl)tetrahydro-2H-pyran-2-yl)oxy)-3,5,8,10,12,14-hexamethyl-15-oxo-1-oxa-6-azacyclopentadecan-11-yl)oxy)-3-hydroxy-6-methyltetrahydro-2H-pyran-4-yl)-1,3-dimethyl-3-phenylurea]	7	3	5	> 64	1	–
CO/N=C(\C(=O)N[C@@H]1C(=O)N2C(C(=O)O)=C(CSC(=O)c3ccco3)CS[C@H]12)c1csc(N)n1 [ceftiofur]	–	–	–	–	–	Survival at Day 7 [6]: ~90%
CCN1CCN(c2cc3c(cc2F)c(=O)c(C(=O)O)cn3C2CC2)CC1 [enrofloxacin]	–	–	–	–	–	MIC ([7]; Histophilus somni): 0.06 to 1 µg/mL (≈ 0.167 to 2.78 µM)
CS(=O)(=O)c1ccc([C@@H](O)[C@@H](CF)NC(=O)C(Cl)Cl)cc1 [florfenicol]	–	–	–	–	–	MIC ([7]; Histophilus somni): 0.12 to 2 µg/mL (≈ 0.335 to 5.58 µM)
CCCN1C[C@H](C)[C@@H](O)[C@](C)(O)[C@@H](CC)OC(=O)[C@H](C)[C@@H](O[C@H]2C[C@@](C)(OC)[C@@H](O)[C@H](C)O2)[C@H](C)[C@@H](O[C@@H]2O[C@H](C)C[C@H](N(C)C)[C@H]2O)[C@](C)(O)C[C@H]1C [gamithromycin (Zactran)]	–	–	–	–	–	MIC50 [7, 10]: 0.25 µg/mL (≈ 0.322 µM); MIC90 [7, 10]: 2 µg/mL (≈ 2.57 µM); MIC Range [7, 10]: 0.12 to 2 µg/mL; MIC50 [8, 11]: 1 µg/mL (≈ 1.29 µM); MIC90 [8, 11]: >64 µg/mL; MIC50 [9, 12]: 1 µg/mL (≈ 1.29 µM); MIC90 [9, 12]: >64 µg/mL
CCCN1C[C@H](C)[C@@H](O)[C@](C)(O)[C@@H](CC)OC(=O)[C@H](C)[C@@H](O[C@H]2C[C@@](C)(OC)[C@@H](O)[C@H](C)O2)[C@H](C)[C@@H](O[C@@H]2O[C@H](C)C[C@H](N(C)C)[C@H]2O)[C@](C)(O)C[C@H]1C [gamithromycin]	–	–	–	–	–	MIC ([7]; H. somni (31 strains)): 0.25 to 8 µg/mL; MIC ([8]; 25 different strains of M. haemolytica): 0.5 to 1 µg/mL; MIC ([9]; 25 different strains of P. multocida): 1 to 2 µg/mL
